By IC50 is commonly meant the concentration that gives 50% inhibition. A low value points to greater potency in that assay.

Molecular target in one experiment: not listed separately
In words: inhibition of placental alkaline phosphatase – biochemical, uHTS hits, selectivity assay for mouse IAP inhibitor project, dose response (AID 488879).
`O=C1Nc2ccccc2/C1=C1/SC(=S)N(NC(=O)c2ccccc2)C1=O` [N-[(5Z)-4-oxo-5-(2-oxo-1H-indol-3-ylidene)-2-sulfanylidene-3-thiazolidinyl]benzamide] displayed an IC50 of 5.31 µM.

The target of another experiment is Alkaline phosphatase, placental type (Homo sapiens, UniProt P05187). The description is as above.
Alkaline phosphatase, placental type, sequence (P05187 whole entry, looked up): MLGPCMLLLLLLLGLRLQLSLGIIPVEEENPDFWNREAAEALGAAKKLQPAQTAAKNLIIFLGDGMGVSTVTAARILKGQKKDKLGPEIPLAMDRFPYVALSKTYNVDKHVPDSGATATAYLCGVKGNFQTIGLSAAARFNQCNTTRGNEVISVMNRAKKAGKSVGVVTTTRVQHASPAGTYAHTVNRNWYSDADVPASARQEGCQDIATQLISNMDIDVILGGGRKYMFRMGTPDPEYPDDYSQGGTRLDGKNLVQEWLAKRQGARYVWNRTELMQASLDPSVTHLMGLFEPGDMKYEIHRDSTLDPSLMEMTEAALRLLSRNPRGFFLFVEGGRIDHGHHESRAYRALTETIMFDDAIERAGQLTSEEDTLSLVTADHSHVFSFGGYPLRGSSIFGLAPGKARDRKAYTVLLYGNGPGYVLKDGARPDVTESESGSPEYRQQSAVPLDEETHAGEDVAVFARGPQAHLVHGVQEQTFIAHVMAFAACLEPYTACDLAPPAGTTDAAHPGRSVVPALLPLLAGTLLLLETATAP
As to `Cc1ccc(Cl)c2c1NC(=O)/C2=C1/NC(=S)NC1=O`, the IC50 was > 100 µM.

Regarding `Nc1nnc(CC(=O)N/N=C/C2C=C([N+](=O)[O-])C=C(Br)C2=O)s1` (stereo not given) [2-(5-azanyl-1,3,4-thiadiazol-2-yl)-N'-[(E)-(5-bromanyl-3-nitro-6-oxidanylidene-cyclohexa-2,4-dien-1-ylidene)methyl]ethanehydrazide], the IC50 is > 100 µM.

Regarding `NS(=O)(=O)c1cc(C(=O)NNC2=c3ccccc3=NC2=O)ccc1Cl` [2-chloro-5-[[(2-oxoindol-3-yl)amino]carbamoyl]benzenesulfonamide], the IC50 is > 100 µM.

Regarding `COc1cc(C=Nn2c(O)csc2=S)ccc1O` [3-[[(E)-(3-methoxy-4-oxidanylidene-cyclohexa-2,5-dien-1-ylidene)methyl]amino]-2-sulfanylidene-1,3-thiazolidin-4-one], the IC50 is > 100 µM.

`Oc1ccc(C=Nn2c(O)csc2=S)c(O)c1O` [3-[[(E)-[2,3-bis(oxidanyl)-4-oxidanylidene-cyclohexa-2,5-dien-1-ylidene]methyl]amino]-2-sulfanylidene-1,3-thiazolidin-4-one]: the IC50 was > 100 µM.

In turn, `CC1NON=C1C(=O)NN=CC1=CC(=O)C(=O)C=C1` (stereo not given) [4-Methyl-furazan-3-carboxylic acid (3,4-dihydroxy-benzylidene)-hydrazide] returned an IC50 of 18 µM.

For the compound `Cc1ccc(/C=C2\SC(=S)N(/N=C/C3C=C([N+](=O)[O-])C=CC3=O)C2=O)o1` (stereo not given) [(5Z)-5-[(5-methylfuran-2-yl)methylidene]-3-[[(E)-(3-nitro-6-oxocyclohexa-2,4-dien-1-ylidene)methyl]amino]-2-sulfanylidene-1,3-thiazolidin-4-one], the IC50 is > 100 µM.

For `C#CCOCCOCCOCCNc1nc(N2CCN(C(=O)CCCCCCCCCCNC(=O)[C@H]([C@@H](C)CC)n3cc(CCCCN=C(N)N)nn3)CC2)nc(N2CCN(C(=O)CCCCCCCCCCNC(=O)[C@@H]([C@H](C)O)n3cc(C)nn3)CC2)n1` [GT-RI], the IC50 is > 100 µM.

Take `O=C1C=CC(C=NNC(=S)Nc2ccccc2[N+](=O)[O-])C=C1O` (stereo not given) [MLS000417596]: the IC50 is > 100 µM.

For `C#CCOCCOCCOCCNc1nc(N2CCN(C(=O)CCCCCCCCCCNC(=O)[C@@H](CCSC)n3cc(CCO)nn3)CC2)nc(N2CCN(C(=O)CCCCCCCCCCNC(=O)[C@H]([C@@H](C)CC)n3cc(CCCCCN)nn3)CC2)n1` [MLS002153719], the IC50 is > 100 µM.

For `O=c1cc(O)cc2oc(-c3ccc(O)c(O)c3)c(O[C@@H]3O[C@H](CO)[C@@H](O)[C@H](O)[C@H]3O)c(O)c1-2` [Quercetin 3-O-beta-D-glucoside], the IC50 was > 100 µM.

In turn, `NS(=O)(=O)c1ccc(N=Nc2c(=O)[nH]n3c(=O)c4c([nH]c23)CCCC4)cc1` [SMR000231775] gave an IC50 of 21.8 µM.

In the case of `O=C(Nn1c(O)csc1=S)C(=O)Nn1c(O)csc1=S` [SMR000349781], the IC50 is > 100 µM.

In the case of `COc1cc(C=CC(=O)CC(=O)C=Cc2ccc(O)cc2)ccc1O` [demethoxycurcumin], the IC50 is > 100 µM.
